The values that follow come from patent publication US10493070B2 (priority 2016, dated 2019).

The test system of this test is recombinant NL4-3 virus (NLRluc, Renilla luciferase in nef, Gag P373S). Nature of the test: HIV cell culture assay (Renilla luciferase reporter virus in MT-2 cells). The class given is cell-based. The method in brief: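 MT-2 cells infected with NL4-3 reporter virus (Renilla luciferase replacing part of nef, Gag P373S), made by 293T transfection and titered in MT-2 cells by luciferase. Infection runs 4–5 days with serial inhibitor dilutions. Antiviral activity read as Renilla luciferase activity (Dual Luciferase reagents).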
(A reporter such as luciferase makes a cellular process visible.)

The mark [1] stands for this setting: Renilla, NL43, read-out: 10% FBS EC50, 10% FBS, numeric values.
Setting [2] is: Renilla, NL43, read-out: 10% FBS EC50, 10% FBS, class symbols A/B/C.

Structures are written as SMILES. Read-outs that look alike come from different tables or passages of the source.

For the compound `CC1(C)C(c2ccc(C(=O)O)cc2)=CC[C@]2(C)CN(c3cc(-c4nnnn4CCN4CCS(=O)(=O)CC4)cc([N+](=O)[O-])c3)CC=C12` [Example B2, (S)-4-(2-(3-(1-(2-(1,1-dioxidothiomorpholino)ethyl)-1H-tetrazol-5-yl)-5-nitrophenyl)-5,5,8a-trimethyl-1,2,3,5,8,8a-hexahydroisoquinolin-6-yl)benzoic acid], under setting [1], the EC50 was determined as 760 nM.
In the case of `CC1(C)C(c2ccc(C(=O)O)cc2)=CC[C@]2(C)CN(C(=O)c3cccc(F)c3F)CC=C12` [Example 4], under setting [2], the EC50 is over 3000 nM.
The same measure, in the same setting: next, `CC(C)C[C@H](N)C(=O)N1CCC(C(=O)N2CC=C3C(C)(C)C(c4ccc(C(=O)O)cc4)=CC[C@]3(C)C2)(c2ccccc2)CC1` [Example 56]: under 500 nM; `CC(C)(C)OC(=O)N1CCN(c2ccccc2C(=O)N2CCC3C(C)(C)C(c4ccc(C(=O)O)cc4)CC[C@]3(C)C2)CC1` (stereo partly drawn) [Example 83, 4-((8aS)-2-(2-(4-(tert-butoxycarbonyl)piperazin-1-yl)benzoyl)-5,5,8a-trimethyldecahydroisoquinolin-6-yl)benzoic acid]: under 500 nM.
With `CC1(C)C(c2ccc(C(=O)O)cc2)=CC[C@]2(C)CN(C(=O)c3ccccc3)CC=C12` [Example 1, (S)-4-(2-benzoyl-5,5,8a-trimethyl-1,2,3,5,8,8a-hexahydroisoquinolin-6-yl)benzoic acid], the EC50 under setting [2] was over 3000 nM.
Take `CC1(C)C(c2ccc(C(=O)O)cc2)=CC[C@]2(C)CN(C(=O)c3ccccc3-c3nc4cc(F)c(F)cc4o3)CC=C12` [Example A338]: the EC50 under setting [2] lay within 500 to 3000 nM.
As to `CC1(C)C(c2ccc(C(=O)O)cc2)=CC[C@]2(C)CN(C(=O)c3cscc3C(=O)N3CC=C4C(C)(C)C(c5ccc(C(=O)O)cc5)=CC[C@]4(C)C3)CC=C12` [Example 64], the EC50 under setting [1] is 1060 nM.
`CC1(C)C(c2ccc(C(=O)O)cc2)=CC[C@@]2(C)CN(C(=O)c3ccccc3-c3nc4c(ccc5ccccc54)o3)CC=C12` [Example A324]: the EC50 under setting [2] is under 500 nM.
`CC1(C)C(c2ccc(C(=O)O)cc2)=CC[C@]2(C)CN(C(=O)c3ccc4[nH]cnc4c3)CC=C12` [Example 40]: under setting [2], the EC50 is over 3000 nM.
On the same count and under the same terms, next, `CC1(C)C(c2ccc(C(=O)O)cc2)=CC[C@]2(C)CN(C(=O)c3ccc(CN)cc3)CC=C12` [Example 53]: over 3000 nM; `CN1CCN(c2cccc(C(=O)N3CC=C4C(C)(C)C(c5ccc(C(=O)O)cc5)=CC[C@]4(C)C3)c2)CC1` [Example 29]: over 3000 nM; `CC(C)(C)OC(=O)N1CCCCC1CCC(=O)N1CCC(C(=O)N2CC=C3C(C)(C)C(c4ccc(C(=O)O)cc4)=CC[C@]3(C)C2)(c2ccccc2)CC1` (stereo partly drawn) [Example A168]: under 500 nM.
In the case of `CC1(C)C(c2ccc(C(=O)O)cc2)=CC[C@]2(C)CN(C(=O)c3ccc(C(=O)N4CC=C5C(C)(C)C(c6ccc(C(=O)O)cc6)=CC[C@]5(C)C4)s3)CC=C12` [Example 62], the EC50 under setting [2] is over 3000 nM.
For `CC1(C)C(c2ccc(C(=O)O)cc2)=CC[C@]2(C)CN(c3ccccc3-c3nnn(CCN4CCS(=O)(=O)CC4)n3)CC=C12` [Example B6], under setting [1], the EC50 turned out to be 45 nM.
Consider `CC1(C)C(c2ccc(C(=O)O)cc2)=CC[C@]2(C)CN(c3ncc(C(=O)O)s3)CC=C12` [Example B12], for which, under setting [2], the EC50 is over 3000 nM.
As for `CC1(C)C(c2ccc(C(=O)O)cc2)=CC[C@]2(C)CN(C(=O)c3ccc(N4CCOCC4)cc3)CC=C12` [Example 28], the EC50 under setting [2] is over 3000 nM.
As to `CC1(C)C(c2ccc(C(=O)O)cc2)=CC[C@]2(C)CN(C(=O)c3cncc(C(=O)O)c3)CC=C12` [Example 45], under setting [2], the EC50 is over 3000 nM.
With `CC(C)C1(C(=O)N2CC=C3C(C)(C)C(c4ccc(C(=O)O)cc4)=CC[C@]3(C)C2)CCN(C(=O)OC(C)(C)C)CC1` [Example 49], the EC50 under setting [1] worked out at 1180 nM.
As to `CC1(C)C(c2ccc(C(=O)O)cc2)=CC[C@]2(C)CN(C(=O)c3ccccc3-c3nc4c(F)cccc4[nH]3)CC=C12` [Example A266], under setting [2], the EC50 is under 500 nM.
Turning to `CC(C)(C)OC(=O)N[C@H]1CC[C@H](C(=O)N2CC=C3C(C)(C)C(c4ccc(C(=O)O)cc4)=CC[C@]3(C)C2)CC1` [Example 15], the EC50 under setting [2] is over 3000 nM.
`CC1(C)C(c2ccc(C(=O)O)cc2)=CC[C@]2(C)CN(C(=O)[C@H]3C[C@@H]4C=C[C@H]3C4)CC=C12` [Example A86]: the EC50 under setting [2] was over 3000 nM.
For the compound `CC1(C)C(c2ccc(C(=O)O)cc2)=CC[C@]2(C)CN(C(=O)c3cccc(C(=O)N4CCS(=O)(=O)CC4)c3)CC=C12` [Example 68], the EC50 under setting [2] was over 3000 nM.
For `COc1ccc(S(=O)(=O)Cc2ccccc2)cc1C(=O)N1CC=C2C(C)(C)C(c3ccc(C(=O)O)cc3)=CC[C@]2(C)C1` [Example 32], the EC50 under setting [1] stood at 660 nM.
Still for that read-out and setting: next, `Cc1ncc(C)n2nc(-c3ccc4c(c3)nc(-c3ccccc3C(=O)N3CC=C5C(C)(C)C(c6ccc(C(=O)O)cc6)=CC[C@]5(C)C3)n4C)nc12` [Example A278]: 4960 nM.
For `COc1ccc(C(=O)N2CC=C3C(C)(C)C(c4ccc(C(=O)O)cc4)=CC[C@]3(C)C2)cc1` [Example 19], the EC50 under setting [2] is over 3000 nM.
Take `CC1(C)C(c2ccc(C(=O)O)cc2)=CC[C@]2(C)CN(C(=O)c3ccc(C(=O)NCCCN4CCS(=O)(=O)CC4)s3)CC=C12` [Example 72]: under setting [2], the EC50 was over 3000 nM.
In the case of `CC1(C)C(c2ccc(C(=O)O)cc2)=CC[C@]2(C)CN(c3cc(O)cc(-c4nnn(CCN5CCS(=O)(=O)CC5)n4)c3)CC=C12` [Example B9], the EC50 under setting [1] was determined as 1170 nM.
Regarding `Cc1nn(-c2ccccc2)nc1C(=O)N1CC=C2C(C)(C)C(c3ccc(C(=O)O)cc3)=CC[C@]2(C)C1` [Example A40], under setting [2], the EC50 was over 3000 nM.
With `CC1(C)C(c2ccc(C(=O)O)cc2)=CC[C@]2(C)CN(c3cc(-c4nnn(CCN5CCS(=O)(=O)CC5)n4)cc([N+](=O)[O-])c3)CC=C12` [Example B1, (S)-4-(2-(3-(2-(2-(1,1-dioxidothiomorpholino)ethyl)-2H-tetrazol-5-yl)-5-nitrophenyl)-5,5,8a-trimethyl-1,2,3,5,8,8a-hexahydroisoquinolin-6-yl)benzoic acid], under setting [1], the EC50 was found to be 24 nM.
Regarding `CN1Cc2c(ccc3nc(-c4ccccc4C(=O)N4CC=C5C(C)(C)C(c6ccc(C(=O)O)cc6)=CC[C@]5(C)C4)[nH]c23)C(c2ccccc2)C1` (stereo partly drawn) [Example 101], under “read-out: 10% FBS EC50, 10% FBS, numeric values”, the EC50 amounted to 2980 nM.
Take `CC1(C)C(c2ccc(C(=O)O)cc2)=CC[C@]2(C)CN(c3ccc(C(=O)O)cc3)CC=C12` [Example B10, (S)-4,4′-(5,5,8a-trimethyl-3,5,8,8a-tetrahydroisoquinoline-2,6(1H)-diyl)dibenzoic acid]: the EC50 under setting [2] is over 3000 nM.
Same read-out and setting: the figure for `CC(C)S(=O)(=O)N1CCC(C(=O)N2CC=C3C(C)(C)C(c4ccc(C(=O)O)cc4)=CC[C@]3(C)C2)(c2ccccc2)CC1` [Example A195] is under 500 nM; for `CC1(C)C2CCN(C(=O)c3ccccc3-c3nc4ccccc4[nH]3)C[C@@]2(C)CC[C@@H]1c1ccc(C(=O)O)cc1` (stereo partly drawn) [Example 85] it is under 500 nM; for `CN1CCC2C(C)(C)[C@@H](c3ccc(C(=O)O)cc3)CC[C@]2(C)C1` (single isomer, unassigned) [Example 91] it is over 3000 nM.
Same read-out and setting: the figure for `CC1(C)C(c2ccc(C(=O)O)cc2)=CC[C@]2(C)CN(C(=O)c3ccc(F)cc3)CC=C12` [Example 3] is over 3000 nM; for `CC1(C)C(c2ccc(C(=O)O)cc2)=CC[C@]2(C)CN(c3ncccn3)CC=C12` [Example B11] it is over 3000 nM; for `CC1(C)C(c2ccc(C(=O)O)cc2)=CC[C@]2(C)CN(C(=O)c3ccccc3-c3nc4cc(C(=O)O)ccc4n3Cc3cccnc3)CC=C12` [Example A293] it is over 3000 nM.
For the compound `CC(C)C[C@@H](N)C(=O)N1CCC(C(=O)N2CC=C3C(C)(C)C(c4ccc(C(=O)O)cc4)=CC[C@]3(C)C2)(c2ccccc2)CC1` [Example 57], the EC50 under setting [1] was 148 nM.
As to `CN(C)c1cccc(C(=O)N2CC=C3C(C)(C)C(c4ccc(C(=O)O)cc4)=CC[C@]3(C)C2)c1` [Example 24], under setting [2], the EC50 is over 3000 nM.
Take `CC1(C)C(c2ccc(C(=O)O)cc2)=CC[C@]2(C)CN(C(=O)c3cccc(C(=O)O)c3)CC=C12` [Example 12]: the EC50 under setting [2] was over 3000 nM.
With `CC1(C)C(c2ccc(C(=O)O)cc2)=CC[C@]2(C)CN(C(=O)C3(c4ccccc4)CCN(C(=O)CCN4CCS(=O)(=O)CC4)CC3)CC=C12` [Example 95], under setting [1], the EC50 was 2700 nM.
With `CN(C)c1ccc(C(=O)N2CC=C3C(C)(C)C(c4ccc(C(=O)O)cc4)=CC[C@]3(C)C2)cc1` [Example 25], the EC50 under setting [2] was over 3000 nM.
On to `CC1(C)C(c2ccc(C(=O)O)cc2)=CC[C@]2(C)CN(c3ncnc(N4CC=C5C(C)(C)C(c6ccc(C(=O)O)cc6)=CC[C@]5(C)C4)n3)CC=C12` [Example 75], for which the EC50 under setting [1] came to 190 nM.
Same read-out and setting: the figure for `CC1(C)C(c2ccc(C(=O)O)cc2)=CC[C@]2(C)CN(C(=O)c3ccccc3-c3nc4ccccc4n3C3CCN(Cc4ccccc4)CC3)CC=C12` [Example A280] is 550 nM.
As to `CC(C)(C)OC(=O)N[C@H]1CC[C@@H](C(=O)N2CC=C3C(C)(C)C(c4ccc(C(=O)O)cc4)=CC[C@]3(C)C2)CC1` [Example 16], the EC50 under setting [2] was over 3000 nM.
